Results taken from patent publication US11391726B2, “MoT cells as a therapeutic screening tool for regulatory t-cell activity” (ARIZONA BOARD OF REGENTS ON BEHALF OF ARIZONA STATE …, priority 2018, dated 2022).
“Also recorded” adds a separate entry of the source.

Legend:
[1] = test system: CD4+ PBMC; test: CFSE proliferation assay: Mabs co-incubated with CD3/28-stimulated CD4+ PBMC without MoT cells; assay type: cell-based, human; conditions: no MoT cells (FIGS. 5C, 5E, 5G)
Method: (§1) Suppression assays. After IRB approval at Arizona State University (protocol #0601000548), peripheral blood was collected from healthy donors. After Ficoll-Paque Plus gradient separation of the buffy coat, CD4+ cells were purified using EasySep Human CD4^+ T Cell Isolation Kit (Catalog #17952 from Stemcell Technologies). Cells were allowed to rest overnight in cIMDM at 37° C. prior to labeling with CFSE (Carboxyfluorescein succinimidyl ester, from Cayman Chemica cat #10009853) dye to track cell divisions. The following day, CD4^+ T cells were counted, stained with CFSE, washed in PBS and then plated in IMDM with 10% FBS at 3×10^5 cells per well in a 48-well plate coated with OKT3 antibody at 5.0 ug/mL for 2 hours at 37° C. then washed twice in PBS before adding soluble co-stimulatory anti-CD28 (eBioscience clone CD28.6) at 5.0 ug/mL final concentration.
(FIG. 5A) Unstimulated PBMC. (FIG. 5B) CD3/28-stimulated CD4^+ PBMC cell division without MoT cells. (FIG. 5C) Anti-GITR, (FIG. 5E) Anti-CCR4 mogamulizumab, and (FIG. 5G) anti-PDL-1 (atezolizumab) co-incubated with PBMCs. (FIG. 5D) Anti-GITR, (FIG. 5F) anti-CCR4 (mogamulizumab), and (FIG. 5H) anti-PDL-1 (atezolizumab) co-incubated with PBMCs and MoT cells (1:½ ratio).

[2] = test system: MoT cells; test: CFSE suppression assay: Mabs pre-incubated with MoT cells, then co-cultured with CD3/28-stimulated CD4+ PBMC; assay type: cell-based, human; conditions: Mab pre-incubated with MoT cells 30 minutes, CD4+ PBMC:MoT ratio 1:1/2, CFSE flow cytometry (FIGS. 5D, 5F, 5H)
Method: as §1
In some studies MoT and Jurkat cells were labeled with Cell Trace FarRed dye (Thermofisher) to gate MoT and Jurkat cells away from CD4^+ PBMC in flow cytometry analysis. Two-fold serial dilutions of MoT and Jurkat cells were added to CD4^+ PBMC, starting at 1.5×10^5 MoT and Jurkat cells (1:1/2 ratio CD4^+ T cells:tumor cells). Final volume per well was 1 mL. Cells were incubated for 5 days. […]

atezolizumab was tested, and the “suppression or inhibition of CD4+ PBMC proliferation by the Mab alone” value [1] was “do not suppress or inhibit”, the “reversal of MoT cell-mediated suppression of CD4+ PBMC proliferation” value [2] was “None of the checkpoint inhibitor Mabs including anti-GITR reversed MoT cell-mediated suppression; also recorded: did not reverse suppression” and the “reversal of MoT cell-mediated suppression of CD4+ PBMC proliferation” value ([2]; listed as anti-PD-L1) was “did not attenuate MoT Treg suppressive activity”.
